Data reported in PubChem BioAssay AID1963850 (Molecular Pharmacology Branch, DTP, NCI, 2024).

Tested on: 192522-019-R-J2-PDC complex tumor spheroid viability
Assay: Anticancer human tumor 192522-019-R-J2-PDC patient-derived colon adenocarcinoma cell line growth inhibition [POLQ]
Conditions: for IC50: curve of first compound; for viability, T/C: stronger effect = lower value
Method in brief: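 Three-cell-type spheroids modelling solid tumor plus stroma served as the readout system; POL inhibitors were tested individually and in combination, concentration ranges set by clinical Cmax where known.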

[1] = second compound 0.0316 µM, first compound 0.0316 µM
[2] = second compound 0.0316 µM, first compound 0.1 µM
[3] = second compound 0.0316 µM, first compound 0.316 µM
[4] = second compound 0.0316 µM, first compound 1 µM
[5] = second compound 0.0316 µM, first compound 3.16 µM
[6] = second compound 0.0316 µM, first compound 10 µM
[7] = second compound 0.1 µM, first compound 0.0316 µM
[8] = second compound 0.1 µM, first compound 0.1 µM
[9] = second compound 0.1 µM, first compound 0.316 µM
[10] = second compound 0.1 µM, first compound 1 µM
[11] = second compound 0.1 µM, first compound 3.16 µM
[12] = second compound 0.1 µM, first compound 10 µM
[13] = second compound 0.316 µM, first compound 0.0316 µM
[14] = second compound 0.316 µM, first compound 0.1 µM
[15] = second compound 0.316 µM, first compound 0.316 µM
[16] = second compound 0.316 µM, first compound 1 µM
[17] = second compound 0.316 µM, first compound 3.16 µM
[18] = second compound 0.316 µM, first compound 10 µM
[19] = second compound 1 µM, first compound 0.0316 µM
[20] = second compound 1 µM, first compound 0.1 µM
[21] = second compound 1 µM, first compound 0.316 µM
[22] = second compound 1 µM, first compound 1 µM
[23] = second compound 1 µM, first compound 3.16 µM
[24] = second compound 1 µM, first compound 10 µM
[25] = second compound 3.16 µM, first compound 0.0316 µM
[26] = second compound 3.16 µM, first compound 0.1 µM
[27] = second compound 3.16 µM, first compound 0.316 µM
[28] = second compound 3.16 µM, first compound 1 µM
[29] = second compound 3.16 µM, first compound 3.16 µM
[30] = second compound 3.16 µM, first compound 10 µM
[31] = second compound 10 µM, first compound 0.0316 µM
[32] = second compound 10 µM, first compound 0.1 µM
[33] = second compound 10 µM, first compound 0.316 µM
[34] = second compound 10 µM, first compound 1 µM
[35] = second compound 10 µM, first compound 3.16 µM
[36] = second compound 10 µM, first compound 10 µM
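Further: spheroids exposed to drugs for seven days before reading.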
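Wherever viability, T/C is given: 100% = DMSO vehicle control viability in luminescence.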

CCc1cc2c(N3CCc4c(cc(Cn5ccnc5)cc4-c4cn(C)nc4C(F)(F)F)C3=O)ccnc2c(OC)n1 + Nc1ccc(C#CCN(C(=O)Cc2ncc(C(F)(F)F)cc2C(F)(F)F)c2ccc(F)cc2)nn1
IC50 (second compound 0.0316 µM): > 10 µM | IC50 (second compound 0.1 µM): > 10 µM | IC50 (second compound 0.316 µM): > 10 µM | IC50 (second compound 1 µM): > 10 µM | IC50 (second compound 3.16 µM): > 10 µM | IC50 (second compound 10 µM): > 10 µM | viability, T/C [1]: 109% | viability, T/C [2]: 94.7% | viability, T/C [3]: 91.9% | viability, T/C [4]: 71.8% | viability, T/C [5]: 75.5% | viability, T/C [6]: 72.2% | viability, T/C [7]: 96.1% | viability, T/C [8]: 94.9% | viability, T/C [9]: 94% | viability, T/C [10]: 80.9% | viability, T/C [11]: 74.6% | viability, T/C [12]: 70.6% | viability, T/C [13]: 103% | viability, T/C [14]: 99% | viability, T/C [15]: 88% | viability, T/C [16]: 80.6% | viability, T/C [17]: 76.2% | viability, T/C [18]: 77.1% | viability, T/C [19]: 99.7% | viability, T/C [20]: 99.4% | viability, T/C [21]: 94.4% | viability, T/C [22]: 88.3% | viability, T/C [23]: 87.6% | viability, T/C [24]: 74.5% | viability, T/C [25]: 108% | viability, T/C [26]: 91.6% | viability, T/C [27]: 97.5% | viability, T/C [28]: 81% | viability, T/C [29]: 90.6% | viability, T/C [30]: 75.8% | viability, T/C [31]: 106% | viability, T/C [32]: 97.9% | viability, T/C [33]: 97.8% | viability, T/C [34]: 86% | viability, T/C [35]: 92.7% | viability, T/C [36]: 79.8%

COc1cc2cc(C(=O)CCC(=O)O)sc2cc1OC + Nc1ccc(C#CCN(C(=O)Cc2ncc(C(F)(F)F)cc2C(F)(F)F)c2ccc(F)cc2)nn1
IC50 (second compound 0.0316 µM): > 10 µM | IC50 (second compound 0.1 µM): > 10 µM | IC50 (second compound 0.316 µM): > 10 µM | IC50 (second compound 1 µM): > 10 µM | IC50 (second compound 3.16 µM): > 10 µM | IC50 (second compound 10 µM): > 10 µM | viability, T/C [1]: 102% | viability, T/C [2]: 105% | viability, T/C [3]: 95.4% | viability, T/C [4]: 99.6% | viability, T/C [5]: 105% | viability, T/C [6]: 89% | viability, T/C [7]: 102% | viability, T/C [8]: 92.1% | viability, T/C [9]: 97.9% | viability, T/C [10]: 101% | viability, T/C [11]: 99.4% | viability, T/C [12]: 87.3% | viability, T/C [13]: 102% | viability, T/C [14]: 102% | viability, T/C [15]: 105% | viability, T/C [16]: 100% | viability, T/C [17]: 93.8% | viability, T/C [18]: 91.8% | viability, T/C [19]: 102% | viability, T/C [20]: 98.5% | viability, T/C [21]: 100% | viability, T/C [22]: 98.8% | viability, T/C [23]: 104% | viability, T/C [24]: 103% | viability, T/C [25]: 103% | viability, T/C [26]: 103% | viability, T/C [27]: 104% | viability, T/C [28]: 93.3% | viability, T/C [29]: 103% | viability, T/C [30]: 103% | viability, T/C [31]: 109% | viability, T/C [32]: 97.4% | viability, T/C [33]: 108% | viability, T/C [34]: 103% | viability, T/C [35]: 114% | viability, T/C [36]: 102%

O=C(Nc1ccc(O)c(NS(=O)(=O)c2ccc(F)cc2)c1)c1ccc(-c2ccccc2)cc1 + Nc1ccc(C#CCN(C(=O)Cc2ncc(C(F)(F)F)cc2C(F)(F)F)c2ccc(F)cc2)nn1
IC50 (second compound 0.0316 µM): > 10 µM | IC50 (second compound 0.1 µM): > 10 µM | IC50 (second compound 0.316 µM): > 10 µM | IC50 (second compound 1 µM): > 10 µM | IC50 (second compound 3.16 µM): > 10 µM | IC50 (second compound 10 µM): > 10 µM | viability, T/C [1]: 104% | viability, T/C [2]: 101% | viability, T/C [3]: 94.6% | viability, T/C [4]: 99.2% | viability, T/C [5]: 104% | viability, T/C [6]: 98.3% | viability, T/C [7]: 109% | viability, T/C [8]: 103% | viability, T/C [9]: 94% | viability, T/C [10]: 87.9% | viability, T/C [11]: 102% | viability, T/C [12]: 103% | viability, T/C [13]: 97.2% | viability, T/C [14]: 101% | viability, T/C [15]: 94.9% | viability, T/C [16]: 105% | viability, T/C [17]: 105% | viability, T/C [18]: 100% | viability, T/C [19]: 110% | viability, T/C [20]: 98.2% | viability, T/C [21]: 97.5% | viability, T/C [22]: 91.6% | viability, T/C [23]: 101% | viability, T/C [24]: 102% | viability, T/C [25]: 99.4% | viability, T/C [26]: 106% | viability, T/C [27]: 102% | viability, T/C [28]: 110% | viability, T/C [29]: 107% | viability, T/C [30]: 111% | viability, T/C [31]: 103% | viability, T/C [32]: 103% | viability, T/C [33]: 109% | viability, T/C [34]: 107% | viability, T/C [35]: 111% | viability, T/C [36]: 103%
